Experimental findings from US11787802B2, “Dihydrobenzimidazolones for medical treatment” (C4 Therapeutics, Inc., priority 2017, dated 2023) are described below.

In the test the target is hCereblon(M1-L442)_hDDB1(M1-H1140) (Homo sapiens (Human), UniProt Q96SW2). Kind of test: Fluorescence direct binding protocol (tryptophan fluorescence titration). The following applies: fluorescence titration at 20° C., excited at 280 nm, recorded at 340 nm; protein 5.0 E−8 M; assay buffer 50 mM Hepes 7.4 200 mM NaCl; read-out: Fluorescence h-Cereblon_DDB1 Mean Kd_EQ. The method, then: Fluorescence Direct Binding Protocol
Determination of the affinities of compounds to protein containing one or more tryptophan is measurable by monitoring the fluorescence emission in direct mode. The measurements depending on the protein available amounts are performed either manually in a cuvette on ISS-PC1 photon counting spectrofluorometer or automatically in well plates on a fluorescence plate reader device. Fluorescence titrations are performed at 20° C. in the chosen binding assay buffer by using a defined constant protein concentration against ligand concentration variations. Small aliquots of known ligand concentration solubilized in DMSO were added and the fluorescence, excited at 280 nm, was recorded at 340 nm. The fluorescence intensity was corrected for protein dilution and for the filter effect (Birdsall et al.^69). The corrected fluorescence intensity was plotted against the ligand concentration and fitted using a four-parameter sigmoidal function, from which the equilibrium dissociation constant Kd was computed using the law of mass action assuming a 1:1 protein-ligand complex (Eftink, 1997^70).
Process • 1) Optimization of measurement parameters to minimize protein consumption and to minimize the dilution effect and the DMSO content • 2) Titration measurements of the protein against ligand by at least 12 titration steps to obtain a good s-curve fit • 3) Repeat the same titration measurements with the ligand alone to enable correction • 4) Check the stability of the protein once by titration against DMSO alone • 5) Determination of the molar extinction coefficients of the ligand at 280 and 340 nm with help of an UV-spectrophotometer • 6) Use Excel template for the correction of the measured raw data • 7) Use GraphPad Prism software for the quadratic binding fit and the KD evaluation.

Each structure is given as a SMILES string. pKd: −log10 of the molar value.

Chain of hCereblon(M1-L442)_hDDB1(M1-H1140) (Q96SW2 whole entry): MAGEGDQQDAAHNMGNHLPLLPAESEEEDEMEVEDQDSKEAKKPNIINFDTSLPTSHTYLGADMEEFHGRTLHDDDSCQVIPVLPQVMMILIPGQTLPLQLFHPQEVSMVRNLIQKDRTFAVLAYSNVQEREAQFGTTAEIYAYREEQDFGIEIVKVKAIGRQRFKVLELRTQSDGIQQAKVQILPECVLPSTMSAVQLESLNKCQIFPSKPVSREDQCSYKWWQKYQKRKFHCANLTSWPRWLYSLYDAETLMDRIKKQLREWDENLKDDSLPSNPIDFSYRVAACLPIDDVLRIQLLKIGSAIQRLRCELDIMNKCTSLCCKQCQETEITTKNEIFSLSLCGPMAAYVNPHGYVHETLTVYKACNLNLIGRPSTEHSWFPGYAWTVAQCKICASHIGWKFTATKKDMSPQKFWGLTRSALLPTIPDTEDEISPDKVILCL
Chain of hCereblon(M1-L442)_hDDB1(M1-H1140) (Q16531 whole entry partner): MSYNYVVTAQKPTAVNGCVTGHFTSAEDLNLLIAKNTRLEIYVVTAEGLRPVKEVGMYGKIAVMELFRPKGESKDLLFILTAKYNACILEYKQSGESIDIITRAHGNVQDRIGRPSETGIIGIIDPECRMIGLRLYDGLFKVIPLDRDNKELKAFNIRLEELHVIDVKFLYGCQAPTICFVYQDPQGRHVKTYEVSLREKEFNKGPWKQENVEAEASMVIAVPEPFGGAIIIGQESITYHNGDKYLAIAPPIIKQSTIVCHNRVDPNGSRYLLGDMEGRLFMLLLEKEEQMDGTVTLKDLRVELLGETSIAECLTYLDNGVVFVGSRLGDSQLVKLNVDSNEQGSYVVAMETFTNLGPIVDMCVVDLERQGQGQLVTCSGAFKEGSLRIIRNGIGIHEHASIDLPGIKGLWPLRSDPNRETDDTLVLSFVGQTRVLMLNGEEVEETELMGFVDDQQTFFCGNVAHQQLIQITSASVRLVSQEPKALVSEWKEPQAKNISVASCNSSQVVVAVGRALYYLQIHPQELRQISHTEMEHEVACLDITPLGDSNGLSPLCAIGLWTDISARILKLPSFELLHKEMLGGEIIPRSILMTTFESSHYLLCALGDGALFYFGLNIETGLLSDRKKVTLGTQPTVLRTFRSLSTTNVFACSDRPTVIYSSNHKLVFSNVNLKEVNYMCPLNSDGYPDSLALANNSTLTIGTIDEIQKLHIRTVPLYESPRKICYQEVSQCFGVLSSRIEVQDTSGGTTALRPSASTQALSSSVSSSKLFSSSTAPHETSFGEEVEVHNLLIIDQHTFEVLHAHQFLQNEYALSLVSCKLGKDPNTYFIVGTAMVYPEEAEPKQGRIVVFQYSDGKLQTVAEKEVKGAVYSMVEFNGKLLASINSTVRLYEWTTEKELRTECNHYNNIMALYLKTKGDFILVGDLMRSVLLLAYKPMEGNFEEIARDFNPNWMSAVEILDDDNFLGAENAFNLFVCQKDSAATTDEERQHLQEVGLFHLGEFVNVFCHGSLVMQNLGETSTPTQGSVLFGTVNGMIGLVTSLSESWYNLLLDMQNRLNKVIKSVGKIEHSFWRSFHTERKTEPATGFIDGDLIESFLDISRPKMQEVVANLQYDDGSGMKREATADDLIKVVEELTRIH

For the compound `O=C(Nc1ccc2[nH]c(=O)[nH]c2c1)c1cccc2c1CCN2` [Example 144, N-(2-Oxo-2,3-dihydro-1H-benzo[d]imidazol-5-yl)indoline-4-carboxamide], the pKd is 7.54. In the case of `CC(C)(C)OC(=O)Nc1ccc2c(c1)CCN2Cc1ccc2[nH]c(=O)[nH]c2c1` [Example 148, tert-Butyl (1-((2-oxo-2,3-dihydro-1H-benzo[d]imidazol-5-yl)methyl)indolin-5-yl)carbamate] it was 7.72; in that of `O=c1[nH]c2ccc(-n3c(C(O)c4ccccc4)nc4ccccc43)cc2[nH]1` (centres unmarked) [Example 85, 5-[2-[Hydroxy(phenyl)methyl]benzimidazol-1-yl]-1,3-dihydrobenzimidazol-2-one], 8.52; in that of `CNC(=O)c1ccc2c(c1)nc(C1(c3ccc(OC)cc3)CC1)n2-c1ccc2[nH]c(=O)[nH]c2c1` [Example 115, 2-(1-(4-Methoxyphenyl)cyclopropyl)-N-methyl-2′-oxo-2′,3′-dihydro-1′H-[1,5′-bibenzo[d]imidazole]-5-carboxamide], 7.02. In the case of `Nc1ccc2c(c1)CCN2Cc1ccc2[nH]c(=O)[nH]c2c1` [Example 149, 5-((5-Aminoindolin-1-yl)methyl)-1,3-dihydro-2H-benzo[d]imidazol-2-one] it was 7.77.

Consider `CNC(=O)c1ccc2c(c1)nc(-c1cc[nH]c1)n2-c1ccc2[nH]c(=O)[nH]c2c1` [Example 66, N-Methyl-2′-oxo-2-(1H-pyrrol-3-yl)-2′,3′-dihydro-1′H-[1,5′-bibenzo[d]imidazole]-5-carboxamide], for which the pKd was 7.29. As for `COC(=O)c1ccc2c(c1)nc(-c1cc(-c3cncn3C)nc3ccccc13)n2-c1ccc2[nH]c(=O)[nH]c2c1` [Example 107, Methyl 2-(2-(1-methyl-1H-imidazol-5-yl)quinolin-4-yl)-2′-oxo-2′,3′-dihydro-1′H-[1,5′-bibenzo[d]imidazole]-5-carboxylate], the pKd is 6.08. In the case of `O=c1[nH]c2ccc(NS(=O)(=O)C3CCNCC3)cc2[nH]1` [Example 134, N-(2-Oxo-2,3-dihydro-1H-benzo[d]imidazol-5-yl)piperidine-4-sulfonamide] it was 8.15; in that of `Cn1c(=O)[nH]c2ccc(Nc3ccccc3N)cc21` [Example 52, 6-((2-Aminophenyl)amino)-1-methyl-1,3-dihydro-2H-benzo[d]imidazol-2-one], 8.22. In the case of `Cn1cncc1-c1cc(-c2nc3ccccc3n2-c2ccc3[nH]c(=O)[nH]c3c2)c2ccccc2n1` [Example 8, 2-(2-(1-Methyl-1H-imidazol-5-yl)quinolin-4-yl)-1′H-[1,5′-bibenzo[d]imidazol]-2′(3′H)-one] it was 8.22; in that of `CNC(=O)c1ccc(Oc2ccc3[nH]c(=O)[nH]c3c2)cc1` [Example 156, N-Methyl-4-((2-oxo-2,3-dihydro-1H-benzo[d]imidazol-5-yl)oxy)benzamide], 7.66; in that of `Cc1sc2c(c1C)C(c1ccc(Cl)cc1)=N[C@@H](CC(=O)NCCCCCNC(=O)c1cccc3c1CCN3C(=O)Nc1ccc3[nH]c(=O)[nH]c3c1)c1nnc(C)n1-2` [Example D, N4-[5-[[2-[(9S)-7-(4-Chlorophenyl)-4,5,13-trimethyl-3-thia-1,8,11,12-tetrazatricyclo[8.3.0.02,6]trideca-2(6),4,7,10,12-pentaen-9-yl]acetyl]amino]pentyl]-N1-(2-oxo-1,3-dihydrobenzimidazol-5-yl)indoline-1,4-dicarboxamide], 8.15.

With `COC(=O)c1ccc(S(=O)(=O)Nc2ccc3[nH]c(=O)[nH]c3c2)cc1` [Example 118, Methyl 4-(N-(2-oxo-2,3-dihydro-1H-benzo[d]imidazol-5-yl)sulfamoyl)benzoate], the pKd is 7.09. In the case of `CC(=O)N1CCC(C(=O)Nc2ccc3[nH]c(=O)[nH]c3c2)CC1` [Example 91, 1-Acetyl-N-(2-oxo-2,3-dihydro-1H-benzo[d]imidazol-5-yl)piperidine-4-carboxamide] it was 8.30. In the case of `CC(=O)Nc1ccc2c(c1)CCN2Cc1ccc2[nH]c(=O)[nH]c2c1` [Example 150, N-(1-((2-Oxo-2,3-dihydro-1H-benzo[d]imidazol-5-yl)methyl)indolin-5-yl)acetamide] it was 8.52; in that of `O=C(Nc1ccc2[nH]c(=O)[nH]c2c1)[C@@H]1CCCc2ccccc21` [Example 72, (R)—N-(2-Oxo-2,3-dihydro-1H-benzo[d]imidazol-5-yl)-1,2,3,4-tetrahydronaphthalene-1-carboxamide], 7.85.

For `CC(=O)N1CCC(NC(=O)c2cnc3[nH]c(=O)[nH]c3c2)CC1` [Example 56, N-(1-Acetylpiperidin-4-yl)-2-oxo-2,3-dihydro-1H-imidazo[4,5-b]pyridine-6-carboxamide], the pKd was 8.70. Regarding `O=C(Nc1ccc2[nH]c(=O)[nH]c2c1)N1CCc2ccccc21` [Example 105, N-(2-Oxo-2,3-dihydro-1H-benzo[d]imidazol-5-yl)indoline-1-carboxamide], the pKd was 8.40. In the case of `COC(=O)c1ccccc1C(=O)Nc1ccc2[nH]c(=O)[nH]c2c1` [Example 151, Methyl 2-((2-oxo-2,3-dihydro-1H-benzo[d]imidazol-5-yl)carbamoyl)benzoate] it was 7.28; in that of `O=C(Nc1ccc(Nc2ccccc2)cc1)Nc1ccc2[nH]c(=O)[nH]c2c1` [Example 87, 1-(2-Oxo-2,3-dihydro-1H-benzo[d]imidazol-5-yl)-3-(4-(phenylamino)phenyl)urea], 7.57. In the case of `CC(C)c1nc2ccccc2n1-c1ccc2[nH]c(=O)n(C)c2c1` [Example 35, 2-Isopropyl-3′-methyl-1′,3′-dihydro-2′H-[1,5′-bibenzo[d]imidazol]-2′-one] it was 7.62. On to `CNC(=O)c1ccc2c(c1)nc(-c1cn(C)cn1)n2-c1ccc2[nH]c(=O)[nH]c2c1` [Example 65, N-Methyl-2-(1-methyl-1H-imidazol-4-yl)-2′-oxo-2′,3′-dihydro-1′H-[1,5′-bibenzo[d]imidazole]-5-carboxamide], for which the pKd was 8.05.

On to `COC(=O)c1cccc2c1CCN2C(=O)c1ccc2[nH]c(=O)[nH]c2c1` [Example 54, Methyl 1-(2-oxo-2,3-dihydro-1H-benzo[d]imidazole-5-carbonyl)indoline-4-carboxylate], for which the pKd is 7.60.

`CN(C(=O)c1cnc2[nH]c(=O)[nH]c2c1)c1ccccc1` [Example 76, N-Methyl-2-oxo-N-phenyl-2,3-dihydro-1H-imidazo[4,5-b]pyridine-6-carboxamide]: the pKd was 7.39. In the case of `Nc1ccc2c(c1)CCN2C(=O)Nc1ccc2[nH]c(=O)[nH]c2c1` [Example 121, 5-Amino-N-(2-oxo-2,3-dihydro-1H-benzo[d]imidazol-5-yl)indoline-1-carboxamide] it was 7.19; in that of `CC(=O)N1CCC(NS(=O)(=O)c2ccc3[nH]c(=O)[nH]c3c2)CC1` [Example 117, N-(1-Acetylpiperidin-4-yl)-2-oxo-2,3-dihydro-1H-benzo[d]imidazole-5-sulfonamide], 8.10; in that of `CC(C)c1nc2cc(OCc3ccccc3)ccc2n1-c1ccc2[nH]c(=O)[nH]c2c1` [Example 120, 5-(Benzyloxy)-2-isopropyl-1′,3′-dihydro-2′H-[1,5′-bibenzo[d]imidazol]-2′-one], 6.71. In the case of `O=C(Nc1cccc(-c2cnco2)c1)c1ccc2[nH]c(=O)[nH]c2c1` [Example 142, N-(3-(Oxazol-5-yl)phenyl)-2-oxo-2,3-dihydro-1H-benzo[d]imidazole-5-carboxamide] it was 7.96. In the case of `Cc1ncc(-c2ccc3[nH]c(=O)[nH]c3c2)s1` [Example 21, 5-(2-Methylthiazol-5-yl)-1H-benzo[d]imidazol-2(3H)-one] it was 8.30; in that of `Cn1c(=O)[nH]c2ncc(C(=O)Nc3ccccc3)cc21` [Example 27, 1-Methyl-2-oxo-N-phenyl-3H-imidazo[4,5-b]pyridine-6-carboxamide], 9.00. On to `COC(=O)c1nc2ccccc2n1-c1ccc2[nH]c(=O)[nH]c2c1` [Example 82, Methyl 1-(2-oxo-1,3-dihydrobenzimidazol-5-yl)benzimidazole-2-carboxylate], for which the pKd is 8.52. In the case of `O=c1[nH]c2ccc(S(=O)(=O)N3CCc4ccccc43)cc2[nH]1` [Example 116, 5-(Indolin-1-ylsulfonyl)-1,3-dihydro-2H-benzo[d]imidazol-2-one] it was 7.32. For `O=c1[nH]c2ccc(N3CCN(c4ccccn4)CC3)nc2[nH]1` [Example 40, 5-[4-(2-Pyridyl)piperazin-1-yl]-1,3-dihydroimidazo[4,5-b]pyridin-2-one], the pKd was 8.15. For the compound `O=C(Nc1ccc2[nH]c(=O)[nH]c2c1)c1coc2ccccc12` [Example 68, N-(2-Oxo-2,3-dihydro-1H-benzo[d]imidazol-5-yl)benzofuran-3-carboxamide], the pKd was 8.05.

On to `CCOC(=O)c1ccc(NC(=O)Nc2ccc3[nH]c(=O)[nH]c3c2)cc1` [Example 126, Ethyl 4-(3-(2-oxo-2,3-dihydro-1H-benzo[d]imidazol-5-yl)ureido)benzoate], for which the pKd is 8.05.
